“And” between values parts separate entries of the source, which are not always exact repeats. Identical values can stand only once. Toxic doses and inconclusive results are not listed. How the source made its calls: active means survival T/C of 150% or more; inactive means T/C below 125% in these data.
Tested on: P388 leukemia ip, CD2F1 mice, survival T/C
Experiment: NCI In Vivo Anticancer Drug Screen. Data for tumor model P388 Leukemia (intraperitoneal) in CD2F1 (CDF1) mice
Settings: endpoint: median survival time, higher = longer survival
Procedure, shortened: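 Mice carrying the transplanted tumor received test compound or vehicle. Survival was recorded in each group, and the value is the treated-group measurement divided by that of the vehicle-treated control group.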

[1] = dose: 100.0 mg/kg/injection, schedule: Q01DX009 (ip), vehicle: saline with Tween-80
[2] = dose: 60.0 mg/kg/injection, schedule: Q01DX005 (ip), vehicle: Klucel (hydroxypropylcellulose) (HPC)
[3] = dose: 120.0 mg/kg/injection, schedule: Q01DX005 (ip), vehicle: Klucel (hydroxypropylcellulose) (HPC)
[4] = dose: 240.0 mg/kg/injection, schedule: Q01DX005 (ip), vehicle: Klucel (hydroxypropylcellulose) (HPC)
[5] = dose: 60.0 mg/kg/injection, schedule: Q01DX005 (ip), vehicle: saline with Tween-80
[6] = dose: 120.0 mg/kg/injection, schedule: Q01DX005 (ip), vehicle: saline with Tween-80
[7] = dose: 50.0 mg/kg/injection, schedule: Q01DX005 (ip), vehicle: saline with Tween-80
[8] = dose: 50.0 mg/kg/injection, schedule: Q01DX005 (ip), vehicle: Klucel (hydroxypropylcellulose) (HPC)
[9] = dose: 100.0 mg/kg/injection, schedule: Q01DX005 (ip), vehicle: Klucel (hydroxypropylcellulose) (HPC)
[10] = dose: 200.0 mg/kg/injection, schedule: Q01DX005 (ip), vehicle: Klucel (hydroxypropylcellulose) (HPC)
[11] = dose: 50.0 mg/kg/injection, schedule: Q01DX009 (ip), vehicle: Klucel (hydroxypropylcellulose) (HPC)
[12] = dose: 100.0 mg/kg/injection, schedule: Q01DX009 (ip), vehicle: Klucel (hydroxypropylcellulose) (HPC)
[13] = dose: 200.0 mg/kg/injection, schedule: Q01DX009 (ip), vehicle: Klucel (hydroxypropylcellulose) (HPC)
[14] = dose: 240.0 mg/kg/injection, schedule: Q01DX005 (ip), vehicle: saline with Tween-80
[15] = dose: 100.0 mg/kg/injection, schedule: Q01DX005 (ip), vehicle: saline with Tween-80
[16] = dose: 200.0 mg/kg/injection, schedule: Q01DX005 (ip), vehicle: saline with Tween-80
[17] = dose: 7.5 mg/kg/injection, schedule: Q01DX005 (ip), vehicle: saline
[18] = dose: 30.0 mg/kg/injection, schedule: Q01DX005 (ip), vehicle: saline

Measured: T/C

CN(c1ccccc1)S(=O)(=O)c1ccccc1
inactive: [1] 95 % of control | dose: 200.0 mg/kg/injection, schedule: Q01DX009 (ip), vehicle: saline with Tween-80 95 % of control | dose: 200.0 mg/kg/injection, schedule: Q04DX003 (ip), vehicle: saline with Tween-80 100 % of control | dose: 400.0 mg/kg/injection, schedule: Q01DX009 (ip), vehicle: saline with Tween-80 100 % of control | dose: 400.0 mg/kg/injection, schedule: Q04DX003 (ip), vehicle: saline with Tween-80 87 % of control

O=C(O)c1ccc(N/N=C/C(F)(F)F)cc1
inactive: dose: 60.0 mg/kg/injection, schedule: Q01DX005 (ip), vehicle: saline + Tween-80 + alcohol 96 % of control | dose: 120.0 mg/kg/injection, schedule: Q01DX005 (ip), vehicle: saline + Tween-80 + alcohol 94 % of control | dose: 240.0 mg/kg/injection, schedule: Q01DX005 (ip), vehicle: saline + Tween-80 + alcohol 102 % of control

COc1ccc(N(CN2C(=O)CCC2=O)CS(=O)(=O)c2ccc(Cl)cc2)cc1
inactive: [2] 97 % of control | [3] 90 % of control | [4] 100 % of control

CCC12OC(COc3ccccc3)CN1CCN2c1ccccc1 (centres undefined)
inactive: [5] 97 % of control | [6] 98 % of control

COC1(OC)CCC(=O)N(Cc2ccccc2)c2cc(C)c(N(Cc3ccccc3)S(=O)(=O)c3ccc(C)cc3)cc2C1C (centres undefined)
inactive: dose: 12.5 mg/kg/injection, schedule: Q01DX005 (ip), vehicle: saline with Tween-80 95 % of control | dose: 25.0 mg/kg/injection, schedule: Q01DX005 (ip), vehicle: saline with Tween-80 90 % of control | [7] 86 % of control and 95 % of control

CC(=O)OCc1c(-c2ccccc2)sc2ccccc2c1=O
inactive: [8] 96 % of control | [9] 102 % of control | [10] 97 % of control

CC(C)n1nnnc1-c1ccccc1
inactive: [11] 94 % of control | [12] 94 % of control | [13] 94 % of control

COC(=O)C1(C)C(=O)NC(=O)CC1C (centres undefined)
inactive: [8] 105 % of control | [9] 101 % of control | [10] 87 % of control

Oc1ccc2ccccc2c1/C=N\Sc1ccccc1
inactive: dose: 50.0 mg/kg/injection, schedule: Q01DX009 (ip), vehicle: saline with Tween-80 98 % of control | [1] 98 % of control

O=C(Cc1csc2ccccc12)NCC1CC1
inactive: [5] 100 % of control | [6] 99 % of control | [14] 99 % of control

Nc1ncnc2c1ccn2Cc1c(Cl)cccc1Cl
inactive: dose: 50.0 mg/kg/injection, schedule: Q01DX005 (ip), vehicle: distilled water + alcohol 101 % of control | dose: 100.0 mg/kg/injection, schedule: Q01DX005 (ip), vehicle: distilled water + alcohol 101 % of control | dose: 200.0 mg/kg/injection, schedule: Q01DX005 (ip), vehicle: distilled water + alcohol 98 % of control

Cc1oc(N)c(C(N)=O)c1C
inactive: dose: 100.0 mg/kg/injection, schedule: Q01DX009 (ip), vehicle: saline sonified 115 % of control | dose: 200.0 mg/kg/injection, schedule: Q01DX009 (ip), vehicle: saline sonified 110 % of control | dose: 400.0 mg/kg/injection, schedule: Q01DX009 (ip), vehicle: saline sonified 115 % of control

COc1ccc2c3c1OC1C(OC)(OC)C=CC4(F)[C@@H](C2)N(C)CC[C@]314 (some centres undefined)
inactive: dose: 100.0 mg/kg/injection, schedule: Q01DX001 (ip), vehicle: Klucel (hydroxypropylcellulose) (HPC) 105 % of control | dose: 200.0 mg/kg/injection, schedule: Q01DX001 (ip), vehicle: Klucel (hydroxypropylcellulose) (HPC) 100 % of control | dose: 400.0 mg/kg/injection, schedule: Q01DX001 (ip), vehicle: Klucel (hydroxypropylcellulose) (HPC) 96 % of control

Cc1cc(=O)oc2cc(O)c(C(=O)/C=C/N(C)C)cc12
inactive: [5] 92 % of control | [6] 95 % of control | [14] 86 % of control

Cc1ccc(-c2c(Br)c(OC(=O)CO[C@@H]3C[C@H](C)CC[C@H]3C(C)C)c(-c3ccc(C)cc3C)c(Br)c2OC(=O)CO[C@H]2C[C@@H](C)CC[C@@H]2C(C)C)c(C)c1
inactive: [7] 95 % of control | [15] 88 % of control | [16] 88 % of control

O=C(Nc1ccc([N+](=O)[O-])cc1)C1C(=O)C(=O)N(c2ccc([N+](=O)[O-])cc2)C1=O (centres undefined)
inactive: [11] 107 % of control | [12] 100 % of control | [13] 104 % of control

CCN(CC)CCNc1ccc(N=Nc2cnc3ccccc3c2)c2ccccc12
inactive: dose: 12.5 mg/kg/injection, schedule: Q01DX009 (ip), vehicle: Klucel (hydroxypropylcellulose) (HPC) 110 % of control | dose: 12.5 mg/kg/injection, schedule: Q04DX003 (ip), vehicle: Klucel (hydroxypropylcellulose) (HPC) 109 % of control | dose: 25.0 mg/kg/injection, schedule: Q01DX009 (ip), vehicle: Klucel (hydroxypropylcellulose) (HPC) 115 % of control | dose: 25.0 mg/kg/injection, schedule: Q04DX003 (ip), vehicle: Klucel (hydroxypropylcellulose) (HPC) 100 % of control | [11] 115 % of control | dose: 50.0 mg/kg/injection, schedule: Q04DX003 (ip), vehicle: Klucel (hydroxypropylcellulose) (HPC) 100 % of control

Clc1ccc2oc(N3CCOCC3)nc2c1
inactive: [5] 103 % of control | [6] 96 % of control | [14] 87 % of control

CCOC(=O)C1=C(C)NC(C)=C(C(=O)OCC)C1c1cccnc1
inactive: dose: 25.0 mg/kg/injection, schedule: Q01DX009 (ip), vehicle: distilled water + Tween-80 101 % of control | dose: 50.0 mg/kg/injection, schedule: Q01DX009 (ip), vehicle: distilled water + Tween-80 103 % of control | dose: 100.0 mg/kg/injection, schedule: Q01DX009 (ip), vehicle: distilled water + Tween-80 94 % of control | dose: 200.0 mg/kg/injection, schedule: Q01DX009 (ip), vehicle: distilled water + Tween-80 93 % of control | dose: 400.0 mg/kg/injection, schedule: Q01DX009 (ip), vehicle: distilled water + Tween-80 88 % of control

CC1(C)CC(=O)C(C(c2ccccc2O)C2C(=O)CC(C)(C)CC2=O)C(=O)C1
inactive: [8] 102 % of control | [9] 102 % of control | [10] 102 % of control

O=C1CC(CO)CC2c3[nH]c4ccccc4c3CCN12 (centres undefined)
inactive: dose: 17.5 mg/kg/injection, schedule: Q01DX005 (ip), vehicle: Klucel (hydroxypropylcellulose) (HPC) 108 % of control | dose: 35.0 mg/kg/injection, schedule: Q01DX005 (ip), vehicle: Klucel (hydroxypropylcellulose) (HPC) 91 % of control | dose: 70.0 mg/kg/injection, schedule: Q01DX005 (ip), vehicle: Klucel (hydroxypropylcellulose) (HPC) 97 % of control

O=C(Cc1nc2ccccc2[nH]c1=O)N/N=C/c1ccc2c(c1)CCC2
inactive: [5] 92 % of control and 95 % of control | [6] 100 % of control | [14] 89 % of control

Nc1[nH][nH]c(=O)c1N
inactive: dose: 50.0 mg/kg/injection, schedule: Q01DX005 (ip), vehicle: saline 101 % of control | dose: 100.0 mg/kg/injection, schedule: Q01DX005 (ip), vehicle: saline 101 % of control | dose: 200.0 mg/kg/injection, schedule: Q01DX005 (ip), vehicle: saline 107 % of control

CCn1c2ccc([N+](=O)[O-])cc2c2c([N+](=O)[O-])c(N)ccc21
inactive: [7] 92 % of control | [15] 87 % of control | [16] 90 % of control

CCN(CC)CC(C)(C)C(=O)/C=C/c1ccc(Cl)c(Cl)c1
inactive: [17] 102 % of control | dose: 15.0 mg/kg/injection, schedule: Q01DX005 (ip), vehicle: saline 101 % of control | [18] 112 % of control | dose: 60.0 mg/kg/injection, schedule: Q01DX005 (ip), vehicle: saline 110 % of control | dose: 120.0 mg/kg/injection, schedule: Q01DX005 (ip), vehicle: saline 118 % of control | dose: 240.0 mg/kg/injection, schedule: Q01DX005 (ip), vehicle: saline 109 % of control

COC(=O)C(C)N(CCCl)P(=O)(N1CC1)N1CC1 (centres undefined)
inactive: [17] 119 % of control
active: [18] 182 % of control

CCOC(=O)C1c2cccc(O)c2CCN1C(C)=O (centres undefined)
inactive: [2] 100 % of control | [3] 100 % of control | [4] 98 % of control

COC1C(Cl)CC(/C(=C\C2CCCCC2)C(=O)O)CC1Cl (centres undefined)
inactive: [7] 100 % of control | [15] 103 % of control | [16] 101 % of control

CCOC(=O)c1cnc2cc3c(cc2c1Nc1cccc(C)c1)OCO3
inactive: [2] 95 % of control | [3] 99 % of control | [4] 91 % of control

From PubChem BioAssay AID330 (DTP/NCI, 2004)
